1 compound from patent US6685915B2, “Extended-linear polymeric contrast agents, and synthesizing methods, for medical imaging” (General Electric Company, priority 1999, dated 2004) can be followed below.

This data set is described as follows: blood circulation time. Format: in vivo.

Text: Furthermore, the blood circulation times can be adjusted by varying the polymer length.

`O=C([O-])CN(CCN(CC(=O)[O-])CC(=O)O)CCN(CC(=O)[O-])CC(=O)O.[Gd+3]` [Gd-DTPA, gadolinuim- diethylentriaminepentaaceticacid]: the circulation time constant stood at 15 min.
